Experiments:
[1] = tested on: NCI-H716; test: GLP-1 secretion in NCI-H716 L-cells, GLP-1 concentration by ELISA; assay type: cell-based, human; settings: NCI-H716 cells pre-treated 48 hours with inhibitor
Source text: Glucagon-like peptide-1 (GLP-1) has numerous physiological functions, including enhancement of glucose-stimulated insulin secretion, stimulation of β-cell anti-apoptosis and proliferation and inhibition of glucagon secretion, food intake and gastric emptying. These antidiabetic properties of GLP-1 have generated intense interest in the use of this short peptide and its agonists for the treatment of patients with type 2 diabetes. A better understanding of the underlying mechanism of GLP-1 secretion may lead to novel approaches used for the treatment of type 2 diabetes. TCF7L2 is the most strongly associated locus with type 2 diabetes and has been known to bind with the promoter region of the proglucagon gene for many years. […] As such, we investigated if existing PARP-1 inhibitors, previously tested in oncology studies, could have a GLP-1 agonist effect. We leveraged the standard human L-cell line, NCI-H716, for GLP-1 secretion assessment to investigate this possible link. We pre-treated the cells for 48 hours with three different PARP-1 inhibitors, Olaparib, Rucaparib and Iniparib, with or without glucose stimulation (16.8 mM). We measured the resulting GLP-1 concentration using an ELISA kit (Millipore).

[2] = tested on: SNP rs7903146 region of TCF7L2 (HCT116 nuclear extracts); test: SILAC oligo pull-down quantifying protein binding to the SNP rs7903146 oligonucleotide with and without insulin treatment; assay type: cell-based, human; settings: HCT116 cells, 1 uM insulin for 1 hour
Experimental: Human HCT 116 cells were cultured in DMEM (4.5 g/l glucose, 10% FCS, 100 U/mL penicillin and 100 íg/mL streptomycin). For insulin stimulation experiments, cells were treated with 1 uM insulin for 1 hour. For SILAC experiments, Cultures were grown according to standard cell-culture procedures in SILAC-light and SILAC-heavy labeled Dulbecco's Modified Eagle Medium (DMEM, ThermoFisher) supplied with 10% dialyzed fetal bovine serum (FBS), ^13C6-lysine and ^13C6-arginine. Cells were washed by cold phosphate-buffered saline (PBS) and harvested by scraping, centrifugation for 5 min at 5000 rpm at 4° C. 10^8 Cells were lysed in 250 ul low salt buffer (10 mM HEPES, 1.5 mM MgCl2, 10 mM KCl, 0.5% NP-40, proteasome inhibitor, phosphatase inhibitor, 10% glycerol, pH 7.9) by incubation on ice for 20 min with vortex 10 seconds per 5 minutes. The nuclei were separated from cytoplasmic fraction by centrifugation 10,000 rpm for 1 min at 4° C. The nuclei pellets were washed once by cold low salt buffer, harvested by centrifugation. […]
The sample was digested with trypsin and analyzed with nanoLC/MS/MS at the Penn Proteomics Core. […] The data were analyzed with Sequest (ThermoFinnigan, San Jose, Calif.; version SRF v. 5). […] The quantification of the SILAC peaks was performed with ProteolQ with customized modification so that the software can use the zoom scanned SLICA peaks for quantification.
To investigate dynamic binding of Parp-1, ATP-dependent RNA helicase A and Thrap3 for the SNP rs7903146 region, we used stable isotope labeling with amino acids in cell culture (SILAC) (Ong, Blagoev et al. 2002) to quantify the binding affinity changes between with and without insulin treatment.
The heavy cells were isotopically labeled in SILAC medium supplied with ^13C6-lysine and ^13C6-arginine and treated with insulin, while the light cells […] served as a control. […] With this approach, we quantified the relative protein abundances including Parp-1, ATP-dependent RNA helicase A and Thrap3 between treatment and without treatment of insulin.

[3] = absence of glucose, compared with glucose-elevated level
[4] = with glucose stimulation (16.8 mM)

Parp-1 binding to rs7903146 oligo, up-regulation upon insulin stimulation [2]	Thrap3 binding to rs7903146 oligo, increase upon insulin stimulation [2]	Compound	GLP-1 secretion (GLP-1 concentration by ELISA) [1, 3]	GLP-1 secretion (GLP-1 concentration by ELISA) [1, 4]	ATP-dependent RNA helicase A binding to rs7903146 oligo, increase upon insulin stimulation [2]
		NC(=O)c1ccc(I)c([N+](=O)[O-])c1 [Iniparib]	equal or greater level of GLP-1 secretion	elevated further	
		O=C(c1cc(Cc2n[nH]c(=O)c3ccccc23)ccc1F)N1CCN(C(=O)C2CC2)CC1 [Olaparib]	equal or greater level of GLP-1 secretion	elevated further	
		CNCc1ccc(-c2[nH]c3cc(F)cc4c3c2CCNC4=O)cc1 [Rucaparib]	equal or greater level of GLP-1 secretion	elevated further	
20%	7 fold	insulin			12 fold

— patent US20160077079A1, “THE CHILDREN'S HOSPITAL OF PHILADELPHIA” (THE CHILDREN'S HOSPITAL OF PHILADELPHIA, priority 2013, published 2016)
